#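 Interpolation was linear, between the two tested concentrations surrounding the appropriate level; five concentrations were tested over 48 hours in 96-well plates. At the GI50, growth is halved.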 Activity calls are given as the source filed them. Rule as the data show it: active = GI50 up to about 1.1 µM and inactive = higher.
# Columns and labels:
# Test in all cases: inhibition of tumour cell growth, NCI panel, 48 h
# LOX IMVI = test system: LOX IMVI
# OVCAR-4 = test system: OVCAR-4
# SNB-75 = test system: SNB-75
# HOP-92 = test system: HOP-92
# DU-145 = test system: DU-145
# SN12C = test system: SN12C
# A498 = test system: A498
# SF-268 = test system: SF-268
# T47D = test system: T47D
# RXF 393 = test system: RXF 393
# SF-295 = test system: SF-295
# NCI-H226 = test system: NCI-H226
# BT-549 = test system: BT-549
# PC-3 = test system: PC-3
# NCI-H460 = test system: NCI-H460
# EKVX = test system: EKVX
# ACHN = test system: ACHN
# MDA-MB-231 = test system: MDA-MB-231
# CCRF-CEM = test system: CCRF-CEM
# HCT-116 = test system: HCT-116
SMILES,GI50 (LOX IMVI),GI50 (OVCAR-4),GI50 (SNB-75),GI50 (HOP-92),GI50 (DU-145),GI50 (SN12C),GI50 (A498),GI50 (SF-268),GI50 (T47D),GI50 (RXF 393),GI50 (SF-295),GI50 (NCI-H226),GI50 (BT-549),GI50 (PC-3),GI50 (NCI-H460),GI50 (EKVX),GI50 (ACHN),GI50 (MDA-MB-231),GI50 (CCRF-CEM),GI50 (HCT-116)
Brc1c(C#CCC2CCCCC2)ccc(C#CCC2CCCCC2)c1Br,> 100 µM (inactive),> 100 µM (inactive),> 100 µM (inactive),> 100 µM (inactive),> 100 µM (inactive),> 100 µM (inactive),> 100 µM (inactive),> 100 µM (inactive),> 100 µM (inactive),> 100 µM (inactive),> 100 µM (inactive),> 100 µM (inactive),> 100 µM (inactive),> 100 µM (inactive),> 100 µM (inactive),> 100 µM (inactive),> 100 µM (inactive),> 100 µM (inactive),> 100 µM (inactive),–
Fc1ccc(/C=C2\COCC3=C2NC(=S)NC3c2ccc(F)cc2)cc1 (stereo not given),19.9 µM (inactive),18.1 µM (inactive),22.2 µM (inactive),18.7 µM (inactive),26.5 µM (inactive),18.5 µM (inactive),16 µM (inactive),17.7 µM (inactive),26.1 µM (inactive),16.6 µM (inactive),18.7 µM (inactive),21.1 µM (inactive),19 µM (inactive),17.3 µM (inactive),19.8 µM (inactive),20 µM (inactive),37 µM (inactive),18.5 µM (inactive),19 µM (inactive),17.3 µM (inactive)
O=C(CCCc1cccc2[nH]c3c(c12)CN(Cc1ccccc1)CC3)c1ccc(F)cc1,7.85 µM (inactive),> 67 µM (inactive),> 62.7 µM (inactive),> 100 µM (inactive),> 100 µM (inactive),> 100 µM (inactive),> 100 µM (inactive),> 100 µM (inactive),15.6 µM (inactive),> 29.9 µM (inactive),> 100 µM (inactive),> 95.3 µM (inactive),> 100 µM (inactive),> 43.6 µM (inactive),31.5 µM (inactive),> 100 µM (inactive),> 100 µM (inactive),> 40.7 µM (inactive),30.4 µM (inactive),18.7 µM (inactive)
CS(=O)(=O)OCCN(CCOS(C)(=O)=O)c1ccc(/C=N/c2ccc3oc(=O)ccc3c2)cc1,7.23 µM (inactive),11.7 µM (inactive),2.43 µM (inactive),12.3 µM (inactive),0.968 µM (active),6.78 µM (inactive),2 µM (inactive),5.13 µM (inactive),5.6 µM (inactive),0.553 µM (active),0.933 µM (active),3.53 µM (inactive),10.5 µM (inactive),16.6 µM (inactive),0.0313 µM (active),8.2 µM (inactive),0.492 µM (active),32.9 µM (inactive),0.871 µM (active),37.7 µM (inactive)
CC1=NC(C)(COC(=O)C2(C)NC(C)(CO)CO2)COC1=O (stereo not given),> 100 µM (inactive),> 100 µM (inactive),> 100 µM (inactive),> 100 µM (inactive),> 100 µM (inactive),> 100 µM (inactive),> 100 µM (inactive),> 100 µM (inactive),> 100 µM (inactive),> 100 µM (inactive),> 100 µM (inactive),> 100 µM (inactive),> 100 µM (inactive),> 100 µM (inactive),> 100 µM (inactive),> 100 µM (inactive),> 100 µM (inactive),> 100 µM (inactive),> 100 µM (inactive),> 100 µM (inactive)
NCCNS(=O)(=O)c1ccc(N)cc1,> 100 µM (inactive),> 100 µM (inactive),> 100 µM (inactive),> 100 µM (inactive),> 100 µM (inactive),> 100 µM (inactive),> 100 µM (inactive),> 100 µM (inactive),> 100 µM (inactive),> 100 µM (inactive),> 100 µM (inactive),> 100 µM (inactive),> 100 µM (inactive),> 100 µM (inactive),–,> 100 µM (inactive),> 100 µM (inactive),> 100 µM (inactive),32.8 µM (inactive),> 100 µM (inactive)
CCOC(=O)/C=C(\C(=O)OCC)n1cc(C)c(=O)n(Cc2cnnn2COCCOC(C)=O)c1=O,5.97 µM (inactive),15.6 µM (inactive),18.4 µM (inactive),1.92 µM (inactive),21.2 µM (inactive),16 µM (inactive),20.8 µM (inactive),15.5 µM (inactive),5.78 µM (inactive),3.28 µM (inactive),25.8 µM (inactive),9.59 µM (inactive),5.52 µM (inactive),16 µM (inactive),11.9 µM (inactive),11.9 µM (inactive),2.67 µM (inactive),19.8 µM (inactive),1.75 µM (inactive),9.42 µM (inactive)
Cn1c(=O)c2c(n(C)c1=O)n1c(=O)c3ccccc3nc1n2C,83.9 µM (inactive),> 100 µM (inactive),39.4 µM (inactive),> 100 µM (inactive),> 100 µM (inactive),> 100 µM (inactive),> 100 µM (inactive),72.3 µM (inactive),> 100 µM (inactive),> 100 µM (inactive),38 µM (inactive),30.7 µM (inactive),> 100 µM (inactive),> 100 µM (inactive),–,> 100 µM (inactive),> 100 µM (inactive),> 100 µM (inactive),> 100 µM (inactive),> 100 µM (inactive)
CN(C)c1ccc(C(C#N)N2CCCN(C(C#N)c3ccc(N(C)C)cc3)C2c2ccc(N(C)C)cc2)cc1 (stereo not given),> 100 µM (inactive),> 100 µM (inactive),> 100 µM (inactive),> 100 µM (inactive),> 100 µM (inactive),> 100 µM (inactive),> 100 µM (inactive),> 100 µM (inactive),> 100 µM (inactive),> 100 µM (inactive),> 100 µM (inactive),> 100 µM (inactive),> 100 µM (inactive),> 100 µM (inactive),–,> 100 µM (inactive),> 100 µM (inactive),> 100 µM (inactive),> 100 µM (inactive),> 100 µM (inactive)
O=c1/c(=C/c2ccc([N+](=O)[O-])o2)sc2n1[C@@H](c1ccc(Cl)cc1)C=C(c1cc(F)c(Cl)cc1Cl)N=2,16 µM (inactive),16.6 µM (inactive),29.2 µM (inactive),12.9 µM (inactive),17.7 µM (inactive),5.5 µM (inactive),30.7 µM (inactive),13.8 µM (inactive),19 µM (inactive),13.2 µM (inactive),21.3 µM (inactive),15.8 µM (inactive),15.1 µM (inactive),11.5 µM (inactive),10 µM (inactive),–,16.3 µM (inactive),5.07 µM (inactive),4.83 µM (inactive),3.56 µM (inactive)

# — ChEMBL document CHEMBL1201862, “PubChem BioAssay data set” (2004)
